Experimental data: US20220396565A1 (Hoffmann-La Roche Inc., priority 2020, published 2022)
Where a name gives a salt, the structure may show the parent alone. Read-outs that look alike come from different tables or passages of the source.

Test system: Acinetobacter baumannii ATCC17961
Test: Antimicrobial susceptibility testing: 90% growth inhibitory concentration (IC90) determination, Iso-Sensitest broth
Assay type: cell-based
Conditions: Acinetobacter baumannii
Summary of the method: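 Growth at OD600 was monitored every 20 min for 16 h at 35±2 °C, with bacteria inoculated at ~5×10^(5) CFU/ml into Iso-Sensitest medium. Compounds were tested as 10-point twofold dilutions (e.g. 10–0.02 μM final). The 90% inhibitory concentration comes from the log-phase growth.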

[1] = ATCC17961, 90% growth inhibitory concentration, Acinetobacter baumannii ATCC17961, Iso-Sensitest broth, read-out: ATCC 17961 IC90
[2] = ATCC17961, read-out: ATCC 17961 IC90

Row | SMILES | IC90 [1] [nM] | IC90 [2] [nM]
1 | Cn1c(-c2ccc(OCC#N)c(F)c2Cl)cnc1C(=O)Nc1ccc(C(=O)N2CCN(C(=O)[C@H]3CCNC3)CC2)c(Cl)c1 [Example 253, 5-[2-chloro-4-(cyanomethoxy)-3-fluoro-phenyl]-N-[3-chloro-4-[4-[(3S)-pyrrolidine-3-carbonyl]piperazine-1-carbonyl]phenyl]-1-methyl-imidazole-2-carboxamide formate] | 50 | –
2 | Cn1c(-c2ccc(OCF)c(F)c2F)cnc1C(=O)Nc1ccc(C(=O)N2CCN(C(=O)C3CCN(CC(N)=O)CC3)CC2)c(Cl)c1 [Example 24, N-(4-(4-(1-(2-amino-2-oxoethyl)piperidine-4-carbonyl)piperazine-1-carbonyl)-3-chlorophenyl)-5-(2,3-difluoro-4-(fluoromethoxy)phenyl)-1-methyl-1H-imidazole-2-carboxamide] | 70 | –
3 | Cn1c(-c2ccc(OCC#N)c(F)c2F)cnc1C(=O)Nc1ccc(C(=O)N2CCN(C(=O)[C@H]3CCCNC3)CC2)c(Cl)c1 [Example 208, (S)-N-(3-chloro-4-(4-(piperidine-3-carbonyl)piperazine-1-carbonyl)phenyl)-5-(4-(cyanomethoxy)-2,3-difluorophenyl)-1-methyl 1H-imidazole-2-carboxamide 2,2,2-trifluoroacetate] | – | 50
4 | C#CCNCCCNC(=O)C1CCN(C(=O)c2ccc(NC(=O)c3ncc(-c4ccc(OC)c(F)c4F)n3C)cc2CC)CC1 [Example 286, 1-[4-[[5-(2,3-difluoro-4-methoxy-phenyl)-1-methyl-imidazole-2-carbonyl]amino]-2-ethyl-benzoyl]-N-[3-(prop-2-ynylamino)propyl]piper-idine-4-carboxamide] | 180 | –
5 | CN(C)CCN1CCN(C(=O)c2ccc(NC(=O)c3ncc(-c4ccc(Oc5ccccn5)c(F)c4F)n3C)cc2Cl)CC1 [Example 271, N-[3-chloro-4-[4-[2-(dimethylamino)ethyl]piperazine-1-carbonyl]phenyl]-5-[2,3-difluoro-4-(2-pyridyloxy)phenyl]-1-methyl-imidazole-2-carboxamide trifluoroacetate] | 640 | –
6 | COc1cc(-c2cnc(C(=O)Nc3ccc(C(=O)N4CCN(C(=O)C5CCNCC5)CC4)c(Cl)c3)n2C)cc(F)c1F [Example 258, N-[3-chloro-4-[4-(piperidine-4-carbonyl)piperazine-1-carbonyl]phenyl]-5-(3,4-difluoro-5-methoxy-phenyl)-1-methyl-imidazole-2-carboxamide formate] | 1120 | –
7 | COc1ccc(-c2cnc(C(=O)Nc3ccc(C(=O)N4CCN(C(=O)C5CCN(CC(=O)O)CC5)CC4)c(Cl)c3)n2C)c(F)c1F [Example 288, 2-[4-[4-[2-Chloro-4-[[5-(2,3-difluoro-4-methoxy-phenyl)-1-methyl-imidazole-2-carbonyl]amino]benzoyl]piperazine-1-carbonyl]-1-piperidyl]acetic acid trifluoroacetate] | – | 470
8 | Cn1c(-c2ccc(OC(F)F)c(F)c2F)cnc1C(=O)Nc1ccc(C(=O)N2CCC(C(=O)N[C@H]3CNC[C@@H]3O)CC2)c(Cl)c1 [Example 50, 1-[2-chloro-4-[[5-[4-(difluoromethoxy)-2,3-difluoro-phenyl]-1-methyl-imidazole-2-carbonyl]amino]benzoyl]-N-[(3S,4S)-4-hydroxypyrrolidin-3-yl]piperidine-4-carboxamide trifluoroacetate] | 50 | –
9 | Cn1c(-c2ccc(OC(F)F)cc2F)cnc1C(=O)Nc1ccc(C(=O)N2CCN(C(=O)C3CCNCC3)CC2)c(Cl)c1 [Example 180, N-[3-chloro-4-[4-(piperidine-4-carbonyl)piperazine-1-carbonyl]phenyl]-5-[4-(difluoromethoxy)-2-fluoro-phenyl]-1-methyl-imidazole-2-carboxamide formate] | 60 | –
10 | Cn1c(-c2ccc(OCF)c(F)c2Cl)cnc1C(=O)Nc1ccc(C(=O)N2CCC(C(=O)N[C@H]3CCNC3)CC2)c(Cl)c1 [Example 65, 1-[2-chloro-4-[[5-[2-chloro-3-fluoro-4-(fluoromethoxy)phenyl]-1-methyl-imidazole-2-carbonyl]amino]benzoyl]-N-[(3S)-pyrrolidin-3-yl]piperidine-4-carboxamide formate] | 50 | –
11 | CN(C)CC(=O)N1CCN(C(=O)c2ccc(NC(=O)c3ncc(-c4ccc(OC(F)F)cc4F)n3C)cc2Cl)CC1 [Example 175, N-[3-chloro-4-[4-[2-(dimethylamino)acetyl]piperazine-1-carbonyl]phenyl]-5-[4-(difluoromethoxy)-2-fluoro-phenyl]-1-methyl-imidazole-2-carboxamide formate] | 50 | –

Continued, in another order:

Row | IC90 [1] [nM] | SMILES | IC90 [2] [nM]
12 | 40 | COc1ccc(-c2cnc(C(=O)Nc3ccc(C(=O)N4CCN(C(=O)N[C@H]5CNC[C@@H]5O)CC4)c(Cl)c3)n2C)c(F)c1F [Example 283, 4-[2-chloro-4-[[5-(2,3-difluoro-4-methoxy-phenyl)-1-methyl-imidazole-2-carbonyl]ami-no]benzoyl]-N-[(3R,4R)-4-hydroxypyrrolidin-3-yl]piperazine-1-carboxamide formate] | –
13 | 140 | COc1ccc(-c2cnc(C(=O)Nc3ccc(C(=O)N4CC(C(=O)N5C[C@H]6CNC[C@H]6C5)C4)c(Cl)c3)n2C)c(F)c1F [Example 70, N-[4-[3-[(3aR,6aS)-2,3,3a,4,6,6a-hexahydro-1H-pyrrolo[3,4-c]pyrrole-5-carbonyl]azetidine-1-carbonyl]-3-chloro-phenyl]-5-(2,3-difluoro-4-methoxy-phenyl)-1-methyl-imidazole-2-carboxamide formate] | –
14 | 70 | COc1ccc(-c2cnc(C(=O)Nc3ccc(C(=O)N4CCN(C(=O)C5CCNCC5)CC4)c(Cl)c3)n2C)c(F)c1F [Example 265, N-[3-chloro-4-[4-(piperidine-4-carbonyl)piperazine-1-carbonyl]phenyl]-5-(2,3-difluoro-4-methoxy-phenyl)-1-methyl-imidazole-2-carboxamide hydrochloride] | –
15 | 100 | COc1ccc(-c2cnc(C(=O)Nc3ccc(C(=O)N4CCC(S(=O)(=O)N5CCNCC5)CC4)c(Cl)c3)n2C)c(F)c1F [Example 21, N-(3-chloro-4-(4-(piperazin-1-ylsulfonyl)piperidine-1-carbonyl)phenyl)-5-(2,3-difluoro-4-methoxyphenyl)-1-methyl-1H-imidazole-2-carboxamide formate] | –
16 | 3300 | COc1ccc(-c2cnc(C(=O)Nc3ccc(C(=O)N4CCC(C(=O)NCCC(=O)O)CC4)c(Cl)c3)n2C)c(F)c1F [Example 67, 3-[[1-[2-chloro-4-[[5-(2,3-difluoro-4-methoxy-phenyl)-1-methyl-imidazole-2-carbonyl]amino]benzoyl]piperidine-4-carbonyl]amino]propanoic acid] | –
17 | 40 | COc1ccc(-c2cnc(C(=O)Nc3ccc(C(=O)N4CCN(C(=O)CC5CNC5)CC4)c(Cl)c3)n2C)c(F)c1F [Example 145, N-[4-[4-[2-(azetidin-3-yl)acetyl]piperazine-1-carbonyl]-3-chloro-phenyl]-5-(2,3-difluoro-4-methoxy-phenyl)-1-methyl-imidazole-2-carboxamide formate] | –
18 | 30 | COc1ccc(-c2cnc(C(=O)Nc3ccc(C(=O)N4CCN(C(=O)CC5(O)CCNCC5)CC4)c(Cl)c3)n2C)c(F)c1F [Example 161, N-[3-chloro-4-[4-[2-(4-hydroxy-4-piperidyl)acetyl]piperazine-1-carbonyl]phenyl]-5-(2,3-difluoro-4-methoxy-phenyl)-1-methyl-imidazole-2-carboxamide formate] | –
19 | 180 | COc1ccc(-c2cnc(C(=O)Nc3ccc(C(=O)N4CCC(NC(=O)C5CCNCC5)C4)c(Cl)c3)n2C)c(F)c1F (stereo not drawn) [Example 110, N-[1-[2-chloro-4-[[5-(2,3-difluoro-4-methoxy-phenyl)-1-methyl-imidazole-2-carbonyl]amino]benzoyl]pyrrolidin-3-yl]piperidine-4-carboxamide formate] | –
20 | 80 | COc1ccc(-c2cnc(C(=O)Nc3ccc(C(=O)N4CCC(C(=O)NC[C@H](C)N)CC4)c(Cl)c3)n2C)c(F)c1F [Example 32, N-[(2S)-2-aminopropyl]-1-[2-chloro-4-[[5-(2,3-difluoro-4-methoxy-phenyl)-1-methyl-imidazole-2-carbonyl]amino]benzoyl] piperidine-4-carboxamide] | –
21 | 230 | COc1ccc(-c2cnc(C(=O)Nc3ccc(C(=O)N4CCN(C(=O)C5CCNCC5)CC4)c(Cl)c3)n2C)c(F)c1OC [Example 257, N-[3-chloro-4-[4-(piperidine-4-carbonyl)piperazine-1-carbonyl]phenyl]-5-(2-fluoro-3,4-dimethoxy-phenyl)-1-methyl-imidazole-2-carboxamide formate] | –
22 | 50 | Cc1cc(NC(=O)c2ncc(-c3ccc(OCF)c(Cl)c3F)n2C)ccc1C(=O)N1CCN(C(=O)[C@@H]2C[C@@H](O)CN2)CC1 [Example 248, 5-[3-chloro-2-fluoro-4-(fluoromethoxy)phenyl]-N-[4-[4-[(2S,4R)-4-hydroxypyrrolidine-2-carbonyl]piperazine-1-carbonyl]-3-methyl-phenyl]-1-methyl-imidazole-2-carboxamide] | –
23 | 30 | Cn1c(-c2ccc(OCF)c(F)c2F)cnc1C(=O)Nc1ccc(C(=O)N2CCN(C(=O)C3[C@H]4CNC[C@@H]34)CC2)c(Cl)c1 (stereo partly drawn) [Example 136, N-[4-[4-[(1R,5S)-3-azabicyclo[3.1.0]hexane-6-carbonyl]piperazine-1-carbonyl]-3-chloro-phenyl]-5-[2,3-difluoro-4-(fluoromethoxy)phenyl]-1-methyl-imidazole-2-carboxamide formate] | –
24 | 70 | COc1ccc(-c2cnc(C(=O)Nc3ccc(C(=O)N4CCC(C(=O)N5CCC(N)CC5)CC4)c(Cl)c3)n2C)c(F)c1F [Example 39, N-[4-[4-(4-aminopiperidine-1-carbonyl)piperidine-1-carbonyl]-3-chloro-phenyl]-5-(2,3-difluoro-4-methoxy-phenyl)-1-methyl-imidazole-2-carboxamide formate] | –
